According to US8372840B2, “Potassium channel blockers” (Xention Limited, priority 2008, dated 2013):

Columns and labels:
[1] = target: T1, human Kv1.3 (Homo sapiens, UniProt P22001); assay: Kv1.3 Autopatch Electrophysiology (whole cell patch-clamp, stably transfected CHO cells); type: cell-based; conditions: compound 1 μM, step to +30 mV for 500 ms, inhibition of total charge relative to control, room temperature; for inhibition at 1 µM: CHO, read-out: hKv1.3 % inh.
T1 construct: expressed in transfected cells; host or cells: stably transfected cells grown in medium for CHO cells
Protocol: Cells stably transfected with cDNA for human Kv1.3 (in pcDNA3.1) were grown in Ex-cell 302 serum-free medium for CHO cells, supplemented with 10 μl/ml [100×] glutamine, 500 μg/ml G418 ([…]), and 1% HT supplement (50×, hypoxanthine and thymidine). Compounds were tested on these cells using the AutoPatch technology in whole cell mode.
The external bathing solution contained (in mM): 150 NaCl, 10 KCl, 1 MgCl2, 3 CaCl2, 10 HEPES, pH 7.4 with NaOH. Patch pipettes were filled with an electrode solution of composition (in mM): 100 K-Gluconate, 20 KCl, 1 MgCl2, 1 CaCl2, 10 HEPES, 11 EGTA, 5 ATP-Na2, 2 Glutathione pH 7.2 with KOH.
Compounds were dissolved in DMSO (100%) and made up in the external bather at a concentration of 1 μM immediately prior to use. All experiments were conducted at room temperature.
A cell suspension (10 ml), with a density of 6×10^6 cells, was aliquoted into a 15 ml centrifuge tube and stored at 4° C. before use. Prior to use a tube was taken and centrifuged at 1000 rpm for 4 mins at room temperature. The supernatant was then discarded, leaving a cell pellet at the bottom of the tube. The pellet was then resuspended using 1 ml of cold (4° C.), filtered (0.22 μm), 0.05% BSA/bather solution (0.05 g BSA/100 ml bather). The bottom of the tube was manually agitated followed by gentle tituration. The cell suspension was then placed in the AutoPatch™ temperature controlled cell-hotel at 14° C. and regularly titurated.
A length of Teflon capillary tubing was dipped into the cell suspension solution, and a column of fluid was taken up by negative pressure. The column of fluid was in electrically connectivity with a Ag/AgCl reference electrode. Borosilicate glass patch pipettes (from 1.5 mm OD, thin-walled filamented, GC150-TF capillary glass, Harvard) were pulled using a DMZ pipette puller (Zeitz Instruments), and were back-filled using the internal pipette solution, being careful that no bubbles remained at the tip or in the body of the pipette. Patch pipettes typically had resistances of 2.5-3.5 MΩ. Once filled, the pipette tip and a proportion of the shaft (˜15 mm) were dipped into Sigmacote (Sigma). The recording pipettes were placed in a multiwell array and mounted on the AutoPatch™ machine. Automated patch-clamping and drug-application was initiated by the operator, but thereafter AutoPatch.exe continued the experiment providing that pre-set conditions and criteria were satisfied.
Whole cell patch-clamp recordings were made using the AutoPatch™ rig, which incorporated an EPC9 or EPC10 amplifier (HEKA, Germany) under control of Pulse software (v8.54 or v8.76, HEKA, Germany), a cell applicator, automated drug application system (DAS), valve controller (VF1) and a suction device all at room temperature. This equipment was completely under the control of AutoPatch.exe and operator intervention was only made when there was a requirement to refill the bather reservoirs or to prevent the loss of a cell due to a technical error.
Qualification stages prior to perfusion and drug application ensured that the observed current met the criteria for the experiment. Cells were continuously perfused with external solution at a flow rate of ˜2 ml/minute.
Electrophysiology voltage-step protocols and analysis of data was performed as follows. Data were sampled at 5 kHz, and filtered with a −3 dB bandwidth of 2.5 kHz. Cells were held at a voltage of −80 mV. Currents were evoked by a voltage step to +30 mV for 500 ms in duration applied every 15 s. Online analysis of the hKv1.3 current during the application of compounds was performed by the Pulse (v8.54 or v8.76, HEKA, Germany), Excel (Microsoft, USA) and AutoPatch™ software, with the total charge measured during the whole of voltage step Inhibition of charge movement in the presence of drug was calculated relative to control.

[2] = target: hKv1.5 (Homo sapiens, UniProt P22460); assay: Kv1.5 Autopatch Electrophysiology (whole cell patch-clamp); type: cell-based; conditions: compound 1 μM, step to 0 mV for 1000 ms, total charge, room temperature (22-24° C.); for inhibition at 1 µM: read-out: hKv1.5 % inh.
Protocol: The external bathing solution contained (in mM): 150 NaCl, 10 KCl, […], 3 MgCl2, 1 CaCl2, 10 HEPES, pH 7.4. Patch pipettes were filled with an electrode solution of composition (in mM): 160 KCl, 0.5 MgCl2, 10 HEPES, 1 EGTA, pH 7.4 with KOH.
Compounds were dissolved in DMSO (100%) and made up in the external bather at a concentration of 1 μM. All experiments were conducted at room temperature (22-24° C.).
A cell suspension (10 ml), with a density of 100,000 cells/ml, was aliquoted into a 15 ml centrifuge tube and transferred to an incubator (37° C., 5% CO2) for approximately one hour before use. Following 60 min incubation, a tube was taken and centrifuged at 1000 rpm for 4 mins at room temperature. 9.5 ml supernatant was thence discarded, leaving a cell pellet at the bottom of the tube. The pellet was then resuspended using 100 μl of cold (4° C.), filtered (0.22 μm), 0.2% BSA/bather solution (0.02 g BSA/10 ml bather). The bottom of the tube was manually agitated gently until the solution became cloudy with cells. The 100 μl cell resuspension solution was then stored on the bench at 4° C. (using a Peltier-based temperature control device) until used.
A length of capillary glass (1B150E-4, WPI) was dipped into the cell suspension solution, such that ˜3 cm column of fluid was taken up by capillary action. A Ag/AgCl wire was dropped into the non-dipped end of the capillary also. The outside of the solution-filled end of the capillary was then dried and the capillary was loaded into the AutoPatch™
Borosilicate glass patch pipettes (from 1.5 mm OD, thin-walled filamented, GC150-TF capillary glass, Harvard) were pulled using a DMZ pipette puller (Zeitz Instruments), and were back-filled using the internal pipette solution, being careful that no bubbles remain at the tip or in the body of the pipette. Patch pipettes typically had resistances of 2.3-3.5 MΩ. Once filled, the pipette tip and a proportion of the shaft (˜15 mm) were dipped into Sigmacote (Sigma). The recording pipette was then loaded into the AutoPatch™. Automated patch-clamping was initiated by the operator, but thereafter AutoPatch.exe continued the experiment providing that pre-set conditions and criteria were satisfied.
Whole cell patch-clamp recordings were made using the AutoPatch™ rig, which incorporated an EPC9 amplifier (HEKA, Germany) under control of Pulse software (v8.54, HEKA, Germany), a motion controller with 2 translators (Newport, UK), valve controller (VF1) and a c-level suction device all at room temperature (22-24° C.). This equipment was completely under the control of AutoPatch.exe and operator intervention was only made when there was a requirement to refill the drug reservoirs or to prevent the loss of a cell due to a technical error. Cells with an Rseries greater than 18 MΩ were discounted from the experiment.
Qualification stages prior to perfusion and drug application ensured that the observed current met the criteria for the experiment. Only those cells with an IK>500 pA were used for experiments. Cells were continuously perfused with external solution at a flow rate of 1.8-2 ml/minute. […] Online analysis of the hKv1.5 current during the application of compounds was performed by the AutoPatch™ software. Voltage-step protocols and analysis of data was performed as described for conventional electrophysiology.
Electrophysiology voltage-step protocols and analysis of data was performed as follows. Data was sampled at 5 kHz, and filtered with a −3 dB bandwidth of 2.5 kHz. Cells were held at a voltage of −80 mV. Currents were evoked to a voltage step for 1000 ms in duration at 0 mV every 5 s. Currents were analysed using Pulsefit software (v8.54, HEKA, Germany), with the total charge measured during the whole of the voltage step. All other plots were produced using Igor Pro (WaveMetrics).

T1 sequence (P22001 whole entry): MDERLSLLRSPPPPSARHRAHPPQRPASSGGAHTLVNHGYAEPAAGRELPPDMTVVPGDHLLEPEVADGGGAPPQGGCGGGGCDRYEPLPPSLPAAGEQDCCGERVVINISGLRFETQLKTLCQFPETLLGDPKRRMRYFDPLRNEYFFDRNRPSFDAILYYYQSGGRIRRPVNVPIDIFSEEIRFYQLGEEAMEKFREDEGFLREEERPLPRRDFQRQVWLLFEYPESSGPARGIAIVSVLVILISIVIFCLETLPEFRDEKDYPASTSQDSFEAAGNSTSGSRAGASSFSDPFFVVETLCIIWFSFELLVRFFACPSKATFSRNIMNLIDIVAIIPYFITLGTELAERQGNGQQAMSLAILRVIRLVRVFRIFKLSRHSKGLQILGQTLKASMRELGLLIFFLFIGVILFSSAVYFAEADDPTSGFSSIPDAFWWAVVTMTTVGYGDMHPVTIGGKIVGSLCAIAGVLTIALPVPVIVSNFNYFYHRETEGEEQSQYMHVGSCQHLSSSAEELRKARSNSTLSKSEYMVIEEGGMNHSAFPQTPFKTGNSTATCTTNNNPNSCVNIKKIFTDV
Sequence of hKv1.5 (P22460 whole entry): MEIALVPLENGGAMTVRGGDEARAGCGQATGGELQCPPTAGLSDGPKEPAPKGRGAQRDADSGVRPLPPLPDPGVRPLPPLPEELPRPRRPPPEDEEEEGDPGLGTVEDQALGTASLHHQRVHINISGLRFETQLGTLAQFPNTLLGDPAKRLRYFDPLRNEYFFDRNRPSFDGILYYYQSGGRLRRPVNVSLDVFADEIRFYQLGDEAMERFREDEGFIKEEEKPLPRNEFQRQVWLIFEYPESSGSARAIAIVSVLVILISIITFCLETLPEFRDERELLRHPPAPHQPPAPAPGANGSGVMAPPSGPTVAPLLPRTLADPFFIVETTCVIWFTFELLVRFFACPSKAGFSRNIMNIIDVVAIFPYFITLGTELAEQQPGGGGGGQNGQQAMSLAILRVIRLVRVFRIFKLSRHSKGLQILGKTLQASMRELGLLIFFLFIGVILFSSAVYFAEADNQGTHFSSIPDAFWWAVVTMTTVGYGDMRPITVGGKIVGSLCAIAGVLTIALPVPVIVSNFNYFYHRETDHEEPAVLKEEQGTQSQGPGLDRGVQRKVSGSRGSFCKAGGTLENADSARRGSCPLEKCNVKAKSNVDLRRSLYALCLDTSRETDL

Compound | inhibition at 1 µM [1] | inhibition at 1 µM [2] | hKv1.3 % inh. [1] | hKv1.5 % inh. [2]
Cn1ccc(S(=O)(=O)N(Cc2ccc(Cl)cc2)c2cccc(OCC(=O)NC3CCC3)c2)n1 [Example 50, 2-{3-[(4-Chloro-benzyl)-(1-methyl-1H-pyrazole-3-sulfonyl)-amino]-phenoxy}-N-cyclobutyl-acetamide] | 94% | 79% | – | –
Cn1ccc(S(=O)(=O)N(Cc2ccc(Cl)cc2)c2cccc(OCC(=O)NC3CC3)c2)n1 [Example 51, 2-{3-[(4-Chloro-benzyl)-(1-methyl-1H-pyrazole-3-sulfonyl)-amino]-phenoxy}-N-cyclopropyl-acetamide] | 83% | 72% | – | –
N-(4-Chloro-benzyl)-3-cyano-4-fluoro-N-[3-(2-oxo-imidazolidin-1-yl)-phenyl]-benzenesulfonamide [Example 45] | – | – | 100% | 95%
N-Benzyl-3-cyano-4-fluoro-N-[3-(2-oxo-imidazolidin-1-yl)-phenyl]-benzenesulfonamide [Example 44] | – | – | 90% | 72%
N-[3-(Benzenesulfonyl-benzyl-amino)-phenyl]-acetamide [Example 10] | – | – | 50% | 28%
Pyridine-3-sulfonic acid (4-chloro-benzyl)-[3-(2-oxo-imidazolidin-1-ylbenzyl)-[3-(2-oxo-imidazolidin-1-yl)-phenyl]-amide [Example 48] | – | – | 96% | 89%
Pyridine-3-sulfonic acid benzyl-[3-(2-oxo-imidazolidin-1-yl)-phenyl]-a(2-oxo-imidazolidin-1-yl)-phenyl]-amide [Example 47] | – | – | 74% | 51%
Pyridine-3-sulfonic acid benzyl-[3-(4-phenyl-piperazin-1-yl)-phenyl]-amide [Example 16] | – | – | 97% | 91%
